We go through 20 compounds from patent publication US7396844B1, “Benzamidine derivatives” (Ajinomoto Co., Inc., priority 1997, dated 2008).

Test [1] concerns the target T1, activated human blood coagulation factor X (Homo sapiens, UniProt P00742).
T1 construct: purchased Enzyme Research Co
As to the kind of experiment: Determination of activity of inhibiting the activated blood coagulation factor X. It is filed as biochemical. The conditions noted are these: for IC50: read-out: Activity of inhibiting activated blood coagulation factor X (pIC50) (converted). On the procedure:
130 μl of 100 mM Tris-HCl buffer adjusted to pH 8.4 was added to 10 μl of an aqueous solution of a compound to be tested. Then 10 μl of a 0.5 unit/ml solution of activated human blood coagulation factor X (a product of Enzyme Research Co.) in Tris-HCl buffer hydrochloride of pH 8.4 was added to the resultant mixture. After the incubation at room temperature for 10 minutes, 50 μl of a solution of N-benzoyl-L-isoleucyl-L-glutamyl-glycyl-L-arginyl-p-nitroanilide hydrochloride (a product of Peptide Institute, Inc.) adjusted to 0.8 mM with Tris-HCl buffer (pH 8.4) was added thereto. The absorbance was determined and then the initial reaction rate was determined. A control was prepared in the same manner as that described above except that the solution of the compound to be tested was replaced with 10 μl of Tris-HCl buffer adjusted to pH 8.4.

The next test has as its system blood plasma. The test can be described thus: Determination of blood anticoagulating activity by prothrombin time (PT). It is filed as biochemical, human. Also noted: key: -log of concentration doubling control PT. The following applies: Table 2; negative logarithm of concentration that elongated PT of the control to twice as long; plasma of healthy people. How it is done:
The blood anticoagulating activity was determined by a prothrombin time (PT) determination method. The PT was determined as follows: The blood was taken from healthy people. […] The blood plasma was separated by the centrifugation. 5 μl of DMSO solution containing a test compound was added to 45 μl of the blood plasma. After the incubation at room temperature for 2 minutes, a test tube containing the blood plasma solution was placed in Sysmex CA-3000 fully automatic blood coagulation determination device (a product of Toa Medical Electronics Co., Ltd), and incubated at 37° C. for 3 minutes. […] PT was automatically determined with the device. A sample containing 5 μl of DMSO in place of the solution of the test compound was used as the control. The negative logarithm (PT2) of the concentration of the test compound which elongated PT of the control to the twice as long was determined, and employed as the index of the blood anticoagulating activity.

A further test deals with T2, human thrombin (Homo sapiens, UniProt P00734).
T2 construct: human thrombin (a product of SIGMA Co.); purchased SIGMA Co
The test can be described thus: Determination of thrombin-inhibiting activity. It is filed as biochemical. The following applies: for IC50: read-out: Thrombin-inhibiting activity (pIC50) (converted). How it is done: 130 μl of 100 mM Tris-HCl buffer adjusted to pH 8.4 was added to 10 μl of an aqueous solution of a test compound. Then 10 μl of a solution of human thrombin (a product of SIGMA Co.) adjusted to 2 units/ml with Tris-HCl buffer of pH 8.4 was added to the resultant mixture. […] The absorbance was determined and then the initial reaction rate was determined. A control was prepared in the same manner as that described above except that the solution of the compound to be tested was replaced with 10 μl of tris hydrochloride buffer adjusted to pH 8.4.

The mark [2] stands for this setting: Table 2, same manner as Example 93.
Where [3] appears, read: Table 2, same manner as Example 94.
Setting [4] is: Table 1, negative logarithm of concentration inhibiting 50% of initial rate, Tris-HCl pH 8.4, room temperature.
Where [5] appears, read: Table 1, negative logarithm of concentration inhibiting 50% of initial rate, substrate S-2238, Tris-HCl pH 8.4.

Where a name gives a salt, the structure may show the parent alone. Read-outs that look alike come from different tables or passages of the source.

T1 sequence (P00742 235-488 limits assumed): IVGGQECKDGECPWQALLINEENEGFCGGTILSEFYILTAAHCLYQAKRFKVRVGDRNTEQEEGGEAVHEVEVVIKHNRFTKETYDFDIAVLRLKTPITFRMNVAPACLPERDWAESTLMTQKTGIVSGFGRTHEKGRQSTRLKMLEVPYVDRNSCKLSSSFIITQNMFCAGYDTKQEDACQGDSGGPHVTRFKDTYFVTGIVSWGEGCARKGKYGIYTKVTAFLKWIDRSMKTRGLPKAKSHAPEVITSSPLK
T1 sequence (P00742 41-179 partner limits assumed): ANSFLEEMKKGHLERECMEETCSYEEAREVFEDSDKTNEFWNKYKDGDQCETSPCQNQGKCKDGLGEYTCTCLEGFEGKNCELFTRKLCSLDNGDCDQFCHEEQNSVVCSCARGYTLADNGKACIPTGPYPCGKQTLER

Regarding `N=C(N)c1ccc(C(=O)NCCOc2cc(C(=N)N)ccc2CC(=O)C(=O)O)cc1` [Compound of Ex. 147, bistrifluoroacetate], the IC50 in test [1] (setting [2]) is 0.0398 µM; at human thrombin (setting [3]), 20 µM. In the test on blood plasma, the “Blood anticoagulating activity (PT2)” value is recorded as 6.5.

Consider `N=C(N)c1ccc(C(=O)NCCSc2cccc(C(=N)N)c2)cc1.O=C(O)C(F)(F)F.O=C(O)C(F)(F)F` [Compound of Ex. 143, N-[2-(3-amidinophenylthio)ethyl]-4-amidinobenzamide bistrifluoroacetate], for which, in test [1] (setting [2]), the IC50 was 0.501 µM. Also, the “Blood anticoagulating activity (PT2)” value in the test with blood plasma is recorded as 5.3.

For `CC(=N)N1CCC(Oc2ccc(C[C@@H](COc3cccc(C(=N)N)c3)NS(=O)(=O)c3ccc(C(=O)O)cc3)cc2)CC1.O=C(O)C(F)(F)F.O=C(O)C(F)(F)F` [Compound of Ex. 168, 4-[(2S)-1-[4-(1-acetimidoyl-4-piperidyloxy)phenyl]-3-(3-amidinophenoxy)-2-propylsulfamoyl]benzoic acid bistrifluoroacetate], the IC50 was 0.0316 µM in test [1] (setting [2]) and 79.4 µM at human thrombin (setting [3]). In the test with blood plasma, the “Blood anticoagulating activity (PT2)” value is recorded as 6.2.

As to `CC(=N)N1CCC(Oc2ccc(C[C@@H](COc3cc(C(=N)N)ccc3CC(=O)C(=O)O)NS(=O)(=O)c3ccccc3)cc2)CC1.O=C(O)C(F)(F)F.O=C(O)C(F)(F)F` [Compound of Ex. 181, 3-[4-amidino-2-[(2S)-3-[4-(1-acetimidoyl-4-piperidyloxy)phenyl]-2-(benzenesulfonylamino)propoxy]phenyl]-2-oxopropionic acid bistrifluoroacetate], the IC50 in test [1] (setting [2]) is 0.02 µM; on human thrombin (setting [3]), 1.58 µM. The “Blood anticoagulating activity (PT2)” value with blood plasma came to 6.7.

As for `CC(=N)N1CCC(Oc2ccc(C(=O)NCCOc3cccc(C(=N)N)c3)cc2)CC1.O=C(O)C(F)(F)F.O=C(O)C(F)(F)F` [Compound of Ex. 99, N-[2-(3-amidinophenoxy)ethyl]-4-(1-acetimidoyl-4-piperidyloxy)benzamide bistrifluoroacetate], the IC50 in test [1] (setting [2]) was 0.251 µM; on human thrombin (setting [3]) it was 316 µM. Moreover, the “Blood anticoagulating activity (PT2)” value with blood plasma came out at 6.2.

With `N=C(N)c1cccc(OC[C@H](Cc2ccc(OC3CCNCC3)cc2)NS(=O)(=O)c2ccccc2)c1.O=C(O)C(F)(F)F.O=C(O)C(F)(F)F` [Compound of Ex. 154, 3-[(2S)-2-(benzenesulfonylamino)-3-[4-(4-piperidyloxy)phenyl]propoxy]benzamidine bistrifluoroacetate], the figures for the IC50 (in test [1] (setting [2]); at human thrombin (setting [3])) were 1.58 µM and 79.4 µM, respectively. For the same compound, the “Blood anticoagulating activity (PT2)” value in the test with blood plasma was 5.1.

`N=C(N)c1ccc(C(=O)NCCCOc2cccc(C(=N)N)c2)cc1.O=C(O)C(F)(F)F.O=C(O)C(F)(F)F` [Compound of Ex. 122, N-[3-(3-amidinophenoxy)propyl]-4-amidinobenzamide bistrifluoroacetate]: the IC50 is 0.501 µM in test [1] (setting [2]) and > 1000 µM at human thrombin (setting [3]). In the test on blood plasma, the “Blood anticoagulating activity (PT2)” value turned out to be 4.5.

As for `N=C(N)c1cccc(OCCNC(=O)c2ccc(CN)cc2)c1.O=C(O)C(F)(F)F.O=C(O)C(F)(F)F` [Compound of Ex. 98, N-[2-(3-amidinophenoxy)ethyl]-4-(aminomethyl)benzamide bistrifluoroacetate], the IC50 was 3.16 µM in test [1] (setting [2]) and 631 µM on human thrombin (setting [3]). In the test with blood plasma, the “Blood anticoagulating activity (PT2)” value was <4.5.

Turning to `CN(C)C(=O)c1ccc(C(=O)NCCOc2cc(C(=N)N)ccc2CC(=O)C(=O)O)cc1` [Compound of Ex. 80, 3-[4-amidino-2-[2-[4-(dimethylcarbamoyl)benzoylamino]ethoxy]phenyl]-2-oxo-propionic acid trifluoroacetate], the IC50 in test [1] (setting [4]) was 0.0126 µM; on human thrombin (setting [5]), 39.8 µM.

For the compound `CC(=N)N1CCC(Oc2ccc(C[C@@H](COc3cccc(C(=N)N)c3)NS(=O)(=O)c3ccc4ccccc4c3)cc2)CC1` [Compound of Ex. 162, 3-[(2S)-2-(2-naphthalenesulfonylamino)-3-[4-(1-acetimidoyl-4-piperidyloxy)phenyl]propoxy]benzamidine bistrifluoroacetate], the IC50 was 0.251 µM in test [1] (setting [2]) and 39.8 µM at human thrombin (setting [3]).

In the case of `CC(=N)N1CCC(Oc2ccc(C(=O)NCCOc3cc(C(=N)N)ccc3CC(=O)C(=O)O)cc2)CC1` [Compound of Ex. 79, 3-[4-amidino-2-[2-[4-(1-acetimidoyl-4-piperidyloxy)benzoylamino]ethoxy]phenyl]-2-oxopropionic acid bistrifluoroacetate], the IC50 in test [1] (setting [4]) was 0.02 µM; on human thrombin (setting [5]), 25.1 µM.

Regarding `N=C(N)c1cccc(OCCNC(=O)c2ccc(N3CCCC3)cc2)c1` [Compound of Ex. 18, N-[2-(3-amidinophenoxy)ethyl]-4-(pyrrolidine-1-yl)benzamide trifluoroacetate], the IC50 in test [1] (setting [4]) was 0.0501 µM; on human thrombin (setting [5]), 39.8 µM.

Regarding `N=C(N)c1ccc(C(=O)N[C@@H](CCC(=O)O)COc2cccc(C(=N)N)c2)cc1` [Compound of Ex. 83, (4S)-4-(4-amidinobenzoylamino)-5-(3-amidinophenoxy)pentanoic acid bistrifluoroacetate], the IC50 in test [1] (setting [4]) was 0.158 µM; on human thrombin (setting [5]), > 1000 µM.

Regarding `N=C(N)c1cccc(OCCNC(=O)c2ccc(/C=C/c3ccncc3)cc2)c1` [Compound of Ex. 10, N-[2-(3-amidinophenoxy)ethyl]-4-[(E)-2-(pyridine-4-yl)vinyl]benzamide bistrifluoroacetate], the IC50 in test [1] (setting [4]) is 0.1 µM; on human thrombin (setting [5]) it was 126 µM.

Take `N=C(N)c1ccc(C(=O)NCCCc2cccc(C(=N)N)c2)cc1.O=C(O)C(F)(F)F.O=C(O)C(F)(F)F` [Compound of Ex. 144, N-[3-(3-amidinophenyl)propyl]-4-amidinobenzamide bistrifluoroacetate]: the IC50 in test [1] (setting [2]) was 1.58 µM. The “Blood anticoagulating activity (PT2)” value in the test with blood plasma is on record as 5.

With `CN(C)C(=O)c1ccc(C(=O)N[C@@H](COc2cccc(C(=N)N)c2)CC(=O)O)cc1` [Compound of Ex. 56, (3R)-4-(3-amidinophenoxy)-3-[(4-dimethylcarbamoylbenzoyl)amino]butyric acid trifluoroacetate], the IC50 is 0.0158 µM in test [1] (setting [4]) and > 1000 µM on human thrombin (setting [5]).

In the case of `CC(=N)N1CCC(Oc2ccc(C(=O)N[C@@H](COc3cccc(C(=N)N)c3)CC(=O)O)cc2)CC1.O=C(O)C(F)(F)F.O=C(O)C(F)(F)F` [Compound of Ex. 62, (3R)-4-(3-amidinophenoxy)-3-[4-(1-acetimidoyl-4-piperidyloxy)benzoylamino]butylic acid bistrifluoroacetate], the “Activity of inhibiting activated blood coagulation factor X (pIC50)” value in test [1] (setting [4]) was 7.4. The “Thrombin-inhibiting activity (pIC50)” value at human thrombin (setting [5]) is given as <3.3.

Take `N=C(N)c1ccc(C(=O)NCCOc2cccc(C(=N)N)c2)cc1.O=C(O)C(F)(F)F.O=C(O)C(F)(F)F` [Compound of Ex. 95, N-[2-(3-amidinophenoxy)ethyl]-4-amidinobenzamide bistrifluoroacetate]: the IC50 in test [1] (setting [2]) is 0.316 µM. Moreover, the “Blood anticoagulating activity (PT2)” value with blood plasma came out at 5.9.

“N-[2-(3-amidinophenoxy)ethyl]-1-(4-pyridyl)piperidine-4-carboxyamide bistrifluoroacetate [Compound of Ex. 24]”: in test [1] (setting [4]), the “Activity of inhibiting activated blood coagulation factor X (pIC50)” value turned out to be 6.5. Moreover, on human thrombin (setting [5]), the “Thrombin-inhibiting activity (pIC50)” value is 3.2.

As to `N=C(N)c1cccc(OC[C@@H](CC(=O)O)NC(=O)c2ccc(N3CCCC3)cc2)c1` [Compound of Ex. 58, (3R)-4-(3-amidinophenoxy)-3-[4-(pyrrolidine-1-yl)benzoylamino]butyric acid trifluoroacetate], the IC50 in test [1] (setting [4]) was 0.0251 µM; on human thrombin (setting [5]) it was > 1000 µM.
